# Earlier results as cited in US20060135599A1, “Use for pharmaceutical composition” (GW Pharma Limited, priority 2002, published 2006).
# Legend:
# [1] = system: spasticity; conditions: oral, nine patients
# [2] = system: spasticity; conditions: oral, 13 patients
smiles,measurement,setting,value
"CCCCCc1cc(O)c2c(c1)OC(C)(C)[C@@H]1CCC(C)=C[C@@H]21 [oral THC, Δ^9 tetrahydrocannabinol]",spasticity compared with placebo,[1],statistically significant reduction
same,subjective improvements in spasticity,[2],significant subjective improvements
